Assay results as given in ChEMBL document CHEMBL1125726 (J Med Chem, 1991).

Columns and labels:
D(1A) dopamine receptor = D(1A) dopamine receptor (Rattus norvegicus, UniProt P18901); experiment: biochemical
Description: Compound was evaluated for its ability to inhibit dopamine receptor D1 in rat striatum using [3H]SCH-23390

D(2) dopamine receptor = D(2) dopamine receptor (Rattus norvegicus, UniProt P61169); experiment: biochemical
D(2) dopamine receptor, sequence (P61169 whole entry): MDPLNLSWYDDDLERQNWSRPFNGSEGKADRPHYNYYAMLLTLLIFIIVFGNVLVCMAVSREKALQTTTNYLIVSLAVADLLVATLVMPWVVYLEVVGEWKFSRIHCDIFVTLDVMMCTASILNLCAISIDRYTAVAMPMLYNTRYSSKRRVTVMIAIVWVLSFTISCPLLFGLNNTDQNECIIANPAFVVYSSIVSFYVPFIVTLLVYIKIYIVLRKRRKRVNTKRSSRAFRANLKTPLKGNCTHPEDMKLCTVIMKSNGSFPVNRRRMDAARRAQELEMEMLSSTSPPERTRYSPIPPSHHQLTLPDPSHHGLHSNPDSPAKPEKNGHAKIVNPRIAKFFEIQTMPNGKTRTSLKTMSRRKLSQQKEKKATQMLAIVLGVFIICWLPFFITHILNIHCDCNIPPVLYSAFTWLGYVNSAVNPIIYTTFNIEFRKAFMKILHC
Description: Compound was evaluated for its ability to inhibit dopamine receptor D2 in rat striatum using [3H]-spiperone

D(1A) dopamine receptor, sequence (P18901 whole entry): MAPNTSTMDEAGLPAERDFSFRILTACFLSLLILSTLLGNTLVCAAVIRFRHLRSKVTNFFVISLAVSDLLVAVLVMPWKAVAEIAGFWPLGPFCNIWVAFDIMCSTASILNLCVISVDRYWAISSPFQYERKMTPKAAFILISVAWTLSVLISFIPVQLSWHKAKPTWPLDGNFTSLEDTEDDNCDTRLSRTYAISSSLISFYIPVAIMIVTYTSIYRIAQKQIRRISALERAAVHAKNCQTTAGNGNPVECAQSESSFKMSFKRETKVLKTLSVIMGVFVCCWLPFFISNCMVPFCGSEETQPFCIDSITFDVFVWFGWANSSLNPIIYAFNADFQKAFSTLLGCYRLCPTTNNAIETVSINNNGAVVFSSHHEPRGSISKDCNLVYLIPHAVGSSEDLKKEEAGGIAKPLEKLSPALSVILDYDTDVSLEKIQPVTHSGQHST

## C=CCN1CCc2cccc3c2[C@@H]1Cc1cccc(O)c1-3
D(1A) dopamine receptor
  Ki: > 10000 nM
Dopamine receptor
  Ki: 1595 nM
D(2) dopamine receptor
  Ki: 155 nM

## C=CCN1CCc2cccc3c2[C@H]1Cc1cccc(O)c1-3
D(1A) dopamine receptor
  Ki: 452 nM
Dopamine receptor
  Ki: 0.034 nM
D(2) dopamine receptor
  Ki: 2 nM
